Results as given in patent US20050048539A1, “Methods to monitor molecule conformation and molecule/molecule proximity” (The General Hospital Corporation, priority 2003, published 2005).

Key:
Aβ secretion = assay: Aβ production after DAPT treatment (sister cultures); format: cell-based, Chinese hamster
Experimental: (§1) Chinese hamster ovary (CHO) cells stably transfected with APP770 and either wild type PS1 (wt PS1) or Aspartate mutant PS1 (D257A PS1) were grown in OPTI-MEM with 5% fetal bovine serum and appropriate antibiotics (Puromycin or Zeocin, respectively, (Berezovska et al., 2000)).
We investigated whether APP and PS1 interactions would still be observed if γ-secretase function was inhibited.

APP and PS1 = assay: Photobleach dequenching FRET assay between APP and PS1; format: cell-based, Chinese hamster
Experimental: Fluorescence Resonance Energy Transfer (FRET) measurements were made using a BioRad1024 confocal microscope mounted on a Nikon Eclipse TE300 inverted Microscope. A krypton-argon laser was used to excite FITC and Cy3 (excitation wavelengths at 488 and 568 nm, respectively). FRET was measured using a method developed for laser scanning confocal microscopy (McLean, P. J. et al., J Biol Chem 275: 8812-8816, 2000; Kinoshita, A. et al., J Neurosci 21: 8354-8361, 2001). The amount of FRET was calculated as a percent increase in donor (FITC) fluorescence intensity after photobleaching the acceptor (Cy3) in a small part of the cell (˜8×8 μm). This ratio was then normalized to the percent change in FITC fluorescence intensity in a non-bleached area of the cell. The percent change in fluorescence intensity was compared to the null hypothesis value of 1.0 by one-group t-tests.
FRET arises when donor and acceptor molecules are <10 nm apart. […] A small area within the cell was photobleached at 568 nm (acceptor only), and FITC fluorescence intensity (at 488 nm) was measured before and after photobleaching.
Treatment with γ-secretase inhibitors (or Asp mutations in PS1) prevents processing of substrates at γ-secretase site. […] This was also true for the D257A PS1 mutation; we observed 25.9±11% (n=8, P<0.05) increase in FITC-fluorescence intensity, compared to a non-FRET control.

[1] = test system: full-length APP, BACE1 and APP CTFs; assay: Western blot of full-length APP, BACE1 and APP CTFs in N2a cells transfected with human APP751; format: cell-based, mouse; details: 1 μM DAPT
Experimental: For the Western Blot analysis, the cells were lysed in 1% Triton X-100 and electrophoresed in 10-20% SDS-polyacrylamide Tris-Glycine gels. The immunoblotting was performed using the APP C8 antibody (Selkoe, D. J. et al., Proc. Natl. Acad. Sci. USA 85, 7341-7345, 1988), mouse actin (Sigma-Aldrich) or rabbit BACE1 (Calbiochem), followed by detection with ECL reagent (Perkin Elmer, Boston, Mass.). Bands on films were quantitated (Odyssey software, LI-COR, Nebraska) and the values normalized to actin expression.
We further examined whether NSAIDs lead to a decrease in γ-secretase activity. Inhibition of γ-secretase activity leads to accumulation of C99 and C83 (APP CTFs) and decreased release of AICD. Mouse N2a neuroblastoma cells were transfected with human APP751, and were treated with different NSAIDs and a Western blot was performed for full-length APP and APP CTFs (FIG. 16A). […] Next we asked whether NSAIDs alter generation of AICD and examined the effects of NSAIDs on the ability of APP-Gal4 to be cleaved by γ-secretase, releasing the Gal4-AICD fragment which activates a Gal4-dependent, artificially expressed, luciferase plasmid (Cao, X. et al., Science 293: 115-120, 2001). […]

[2] = test system: APP and PS1 (PS1/γ-secretase complex); assay: FLIM assay for PS1 loop-APP C-terminus proximity in CHO cells treated with γ-secretase inhibitors; format: cell-based, Chinese hamster; details: WT PS1 CHO cells; donor PS1 loop-FITC, acceptor APP770-CY3; 4 h with DAPT 500 nM or WPE-III-31C 1 μM; non-FRET control 2600 ± 110, untreated 2290 ± 216
Experimental: as §1
Cells were fixed and immunostained 24 hrs posttransfection as described previously (Jack, C. et al., Brain Res Mol Brain Res 87: 166-174, 2001). We used a polyclonal C8 antibody (Selkoe, D. et al., Proc Natl Acad Sci USA 85: 7341-7345, 1988) to detect the C-terminus of APP. A monoclonal antibody to the loop region of PS1 (Chemicon, Temecula, Calif.) was used to identify the γ-secretase complex. PS1 N-terminal X81 antibody was a gift from D. Selkoe (Brigham and Women's Hospital, Boston, Mass.); PS1 C-terminal antibody was purchased from R&D Systems, Inc., Minneapolis, Minn.). For FRET/FLIM studies we chose Cy3-labeled goat anti-rabbit as the acceptor fluorophore, and FITC-labeled goat anti-mouse as the donor fluorophore.
Fluorescence Lifetime Imaging Microscopy (FLIM) relies on the observation that fluorescence lifetimes (the time of fluorophore emission after brief excitation, measured in picoseconds) are shorter in the presence of a FRET acceptor. […] We used a high-speed Hamamatsu detector and hardware/software from Becker and Hickl (Berlin, Germany) to measure fluorescence lifetimes on a pixel-by-pixel basis. […]
The following controls were used to establish and validate the FLIM assay: (1) As a negative control, FITC lifetime was measured in the absence of the acceptor. […] (2) As a positive control, FITC lifetime was measured in the presence of an acceptor. […] By contrast, the FITC fluorescence lifetime (FLIM image) within the area where the acceptor was photobleached reverts to a longer lifetime (color-coded as blue), identical to the lifetime of FITC in the absence of an acceptor (as in the negative control, FIG. 7A). […]
If there was no interaction, lifetimes on the order of ˜2600 psec were observed. If FRET was detected, a population with a statistically shorter lifetime (<˜2400 psec) was observed.

**Q.** Which Aβ secretion (Aβ secretion) does the source give for `C[C@H](NC(=O)Cc1cc(F)cc(F)c1)C(=O)N[C@H](C(=O)OC(C)(C)C)c1ccccc1` [DAPT] here?
**A.** significant decrease

**Q.** And the “association of APP with PS1 (photobleach FRET, FIG. 10)” value (APP and PS1; DAPT-treated cells)?
**A.** does not prevent close association of APP with PS1

**Q.** And the “FRET: percent increase in FITC fluorescence intensity after photobleaching Cy3” value (APP and PS1; wt PS1/APP770 cells, DAPT treatment, untreated 11.6±3%)?
**A.** 19.8±2%

**Q.** And the “APP CTFs (Western blot)” value [1]?
**A.** accumulation of APP CTFs

**Q.** What about the “FITC Lifetime (psec) mean ± SD” value [2] of the same compound?
**A.** 2416 ± 118 (n = 9) psec
